Key:
CYP450 2C9 = CYP450 2C9 (Homo sapiens, UniProt P11712); assay: CYP450 inhibition; assay type: in vitro ADME
Description: (§1) The highest plasma concentrations generally occurred in 1-2 hours. […] The highest level of inhibition was ˜35% for 2C19 at a 30 μM concentration. […] Lastly, VGX-1027 is stable in human liver S9 fractions (with phase 1 and 2 cofactors) with t1/2>90 minutes, which indicates a low likelihood of metabolism in the liver.

CYP450 3A4 = CYP450 3A4 (Homo sapiens, UniProt P08684); assay: CYP450 inhibition; assay type: in vitro ADME
Chain of CYP450 3A4 (P08684 whole entry): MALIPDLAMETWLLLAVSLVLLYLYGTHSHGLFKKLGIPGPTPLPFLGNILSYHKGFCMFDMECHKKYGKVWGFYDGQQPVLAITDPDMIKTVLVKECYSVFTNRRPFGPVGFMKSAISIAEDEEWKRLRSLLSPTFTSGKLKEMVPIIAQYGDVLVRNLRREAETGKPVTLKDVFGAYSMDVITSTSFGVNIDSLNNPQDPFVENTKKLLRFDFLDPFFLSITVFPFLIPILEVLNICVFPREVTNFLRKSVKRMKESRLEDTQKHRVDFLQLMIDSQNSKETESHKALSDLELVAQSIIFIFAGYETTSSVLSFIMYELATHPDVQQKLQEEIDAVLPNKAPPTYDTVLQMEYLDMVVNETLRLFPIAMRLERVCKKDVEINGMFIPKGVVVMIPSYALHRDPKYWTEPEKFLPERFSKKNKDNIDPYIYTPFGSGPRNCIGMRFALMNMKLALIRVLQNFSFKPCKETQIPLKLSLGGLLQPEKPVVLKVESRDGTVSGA
Description: as §1

CYP450 1A2 = CYP450 1A2 (Homo sapiens, UniProt P05177); assay: CYP450 inhibition; assay type: in vitro ADME
Chain of CYP450 1A2 (P05177 whole entry): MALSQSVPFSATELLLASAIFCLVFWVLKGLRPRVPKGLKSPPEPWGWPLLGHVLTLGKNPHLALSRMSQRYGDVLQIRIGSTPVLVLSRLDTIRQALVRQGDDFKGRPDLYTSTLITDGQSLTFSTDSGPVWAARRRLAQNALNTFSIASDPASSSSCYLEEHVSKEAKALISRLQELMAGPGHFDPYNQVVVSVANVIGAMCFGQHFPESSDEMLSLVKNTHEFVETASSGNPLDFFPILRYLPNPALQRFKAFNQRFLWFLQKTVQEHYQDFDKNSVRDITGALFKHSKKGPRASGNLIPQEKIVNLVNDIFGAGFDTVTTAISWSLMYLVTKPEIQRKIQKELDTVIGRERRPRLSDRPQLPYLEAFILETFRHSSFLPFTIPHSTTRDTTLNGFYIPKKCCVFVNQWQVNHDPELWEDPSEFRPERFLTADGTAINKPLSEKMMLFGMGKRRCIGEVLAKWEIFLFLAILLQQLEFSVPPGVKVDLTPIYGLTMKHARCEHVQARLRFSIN
Description: as §1

CYP450 2D6 = CYP450 2D6 (Homo sapiens, UniProt P10635); assay: CYP450 inhibition; assay type: in vitro ADME
Chain of CYP450 2D6 (P10635 whole entry): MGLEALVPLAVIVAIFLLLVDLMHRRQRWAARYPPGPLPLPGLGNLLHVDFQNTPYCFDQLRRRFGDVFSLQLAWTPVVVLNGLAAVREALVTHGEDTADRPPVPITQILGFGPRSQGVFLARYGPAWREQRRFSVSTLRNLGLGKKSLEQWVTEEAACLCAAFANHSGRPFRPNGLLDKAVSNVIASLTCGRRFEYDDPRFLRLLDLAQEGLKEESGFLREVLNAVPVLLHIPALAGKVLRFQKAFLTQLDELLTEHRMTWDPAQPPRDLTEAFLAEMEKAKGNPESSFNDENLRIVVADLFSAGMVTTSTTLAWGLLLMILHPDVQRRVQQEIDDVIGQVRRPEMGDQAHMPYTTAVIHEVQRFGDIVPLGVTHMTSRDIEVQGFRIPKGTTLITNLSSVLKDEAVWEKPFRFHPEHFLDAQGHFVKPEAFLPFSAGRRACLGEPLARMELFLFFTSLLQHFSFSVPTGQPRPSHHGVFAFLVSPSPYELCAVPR
Description: as §1

CYP450 2C19 = CYP450 2C19 (Homo sapiens, UniProt P33261); assay: CYP450 inhibition; assay type: in vitro ADME; details: 2C19
Chain of CYP450 2C19 (P33261 whole entry): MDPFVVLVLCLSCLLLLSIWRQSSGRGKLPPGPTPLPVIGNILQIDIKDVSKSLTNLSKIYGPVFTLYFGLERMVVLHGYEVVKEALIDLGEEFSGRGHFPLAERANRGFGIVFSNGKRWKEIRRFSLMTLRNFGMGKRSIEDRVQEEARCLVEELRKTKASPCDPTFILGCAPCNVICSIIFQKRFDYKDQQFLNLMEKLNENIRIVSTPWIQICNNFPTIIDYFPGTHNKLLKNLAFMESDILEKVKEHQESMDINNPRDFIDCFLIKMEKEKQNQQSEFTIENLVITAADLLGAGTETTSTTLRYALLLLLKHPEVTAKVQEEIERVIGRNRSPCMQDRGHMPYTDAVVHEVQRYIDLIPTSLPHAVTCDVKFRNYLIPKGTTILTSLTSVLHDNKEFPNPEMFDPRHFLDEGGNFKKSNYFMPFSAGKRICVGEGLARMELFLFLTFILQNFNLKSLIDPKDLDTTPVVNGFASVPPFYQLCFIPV
Description: as §1

CYP2C19 = CYP2C19 (Homo sapiens, UniProt P33261); assay: CYP450 inhibition; assay type: in vitro ADME; details: human; 2C19 at 30 μM; read-out: highest level of inhibition
Chain of CYP2C19 (P33261 whole entry): as above
Description: as §1

[1] = tested on: systemic lupus erythematosus (SLE); assay: NZB/NZW F1 model of systemic lupus erythematosus; assay type: in vivo, NZB/NZW F1 mice
Description: FIG. 19. Effects of VGX-1027 administration on survival rate (A), proteinuria (B) and serum anti-dsDNA antibodies (C) of NZB/NZW F1 mice treated for 20 weeks with either VGX-1027 or vehicle.
FIG. 20. Histopathological analysis (A) and relative phospho-STAT3 (B) levels in kidney sample of NZB/NZW F1 mice treated for 20 weeks with either VGX-1027 or vehicle.
To determine the effects of VGX-1027 on the development and progression of SLE, lupus-prone NZB/NZW F1 were treated daily with 5 mg/mouse VGX-1027 i.p. for 20 weeks, starting at 16 weeks of age. Control mice received an equal volume of vehicle. Control mice started to die at 20 weeks of age. By week 36, 62.5% of them were dead compared to the only 33.3% of treated mice (p=0.0487 by Log-rank test) (FIG. 19A). Improved survival was correlated with inhibition of renal disease. Proteinuria was assessed once a week. […] Eventually, all of the mice developed proteinuria but the delay in disease progression and prolonged survival of VGX-1027 treated animals remained evident (FIG. 19B).

CAR-induced pleurisy = assay: Carrageenan (CAR)-induced pleurisy; assay type: in vivo, mice; details: i.p. or oral
Description: VGX-1027 was administered via the intraperitoneum or orally, and the production of exudates volume (A), PCN infiltration (B), and MPO activity (C) in the lungs was determined. Data are means±SD from 2 independent experiments.
Next, carrageenan (CAR)-induced pleurisy, a well-known model of acute inflammation mediated by leukocytes where type-1 proinflammatory cytokines such as IL-1 and TNF-α play a major pathogenic role, was evaluated. Mice that are challenged with CAR develop acute pleurisy with turbid exudates. The amount of inflammation was measured by the volume of exudates, the number of granulocytes (PCN), and the amount of Myeloperoxidase (MPO), activity in the lungs. Anti-TNF antibodies were used as a control to compare the effects of VGX-1027 with those of TNF-α blockade, which is commonly used to treat inflammatory disorders in humans.

NF-kB = NF-kB activation in human macrophages; assay type: cell-based; details: LPS induced, monocyte-derived human macrophages
[2] = Stability in human liver S9 fractions; assay type: in vitro ADME; details: with phase 1 and 2 cofactors, read-out: t1/2 in human liver S9 fractions
Description: as §1

[3] = tested on: endotoxin-induced uveitis; assay: Endotoxin-induced uveitis (EIU); assay type: in vivo, Lewis rats
Description: Rats were treated with VGX-1027 at 30 minutes (A) and 6 and 12 hours (B) after LPS injection […]). […] were evaluated 16 hours post LPS injection. Dexamethasone (1 mg/kg) was administered as a positive control. *p<0.0001 vs. vehicle.
Chronic intraocular inflammation denotes a heterogeneous group of diseases that is a leading cause of acquired blindness in adults. Uveitis refers to inflammation of the uvea, which is the vascular tunic or middle coat of the eye, and is responsible for approximately 3% of blindness in the United States. Unlike other autoimmune conditions with known etiologies, uveitis manifests in a number of inflammatory syndromes including Crohn's disease, Behcet's disease, sarcoidosis, and others (Yeh et al., Semin. Immunopathol., (30) 145-164 (2008)). To study the possible utility of VGX-1027 in treating ocular inflammatory conditions, we injected LPS into footpads of Lewis Rats to induce uveitis. After 16 hours post LPS injection, the rats were sacrificed, and their eyes and aqueous humor were collected to study serological, immunological, and histological signs of EIU. The development of EIU was graded on the following scale: (0) no inflammatory reaction; (1) discrete dilatation of the iris and conjunctival vessels; (2) moderate dilatation of the iris and conjunctival vessels; (3) intense iridal hyperaemia with flare in anterior chamber; and (4) same clinical signs as grade 3 plus the presence of fibrinous exudate in the pupillary area with intense flare in the anterior chamber.

Normal human PBMCs = assay: Ex vivo immune effects in PBMCs with plasma of dosed subjects; assay type: cell-based; details: LPS 5 μg/ml + plasma of 5th day after dosing
Description: Normal human PBMCs were isolated and cultured in the presence of LPS (5 μg/ml) with or without VGX-1027 treated plasma. Plasma samples were obtained by blood collection before and on the 5th day after VGX-1027 dosing in steady state. Cell free supernateants were analyzed for production of TNF-α and IL-1β 24 hours post treatment. Cytokine levels (pg/ml) were assayed by ELISA. Representative results were correlated with pro-inflammatory cytokine inhibition.

Chain of CYP450 2C9 (P11712 whole entry): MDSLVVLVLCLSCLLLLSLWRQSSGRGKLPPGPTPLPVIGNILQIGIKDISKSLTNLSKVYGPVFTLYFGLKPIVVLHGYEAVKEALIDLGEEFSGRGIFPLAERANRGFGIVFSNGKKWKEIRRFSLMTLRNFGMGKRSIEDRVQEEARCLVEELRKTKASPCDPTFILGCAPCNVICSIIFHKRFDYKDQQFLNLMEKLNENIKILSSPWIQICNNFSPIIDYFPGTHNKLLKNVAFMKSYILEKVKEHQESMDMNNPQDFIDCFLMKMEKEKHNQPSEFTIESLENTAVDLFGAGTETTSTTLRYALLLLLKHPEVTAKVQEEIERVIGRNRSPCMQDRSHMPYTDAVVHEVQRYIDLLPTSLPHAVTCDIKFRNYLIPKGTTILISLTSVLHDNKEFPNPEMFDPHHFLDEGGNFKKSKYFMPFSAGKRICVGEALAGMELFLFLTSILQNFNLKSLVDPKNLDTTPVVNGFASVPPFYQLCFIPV

In the case of `O=C(O)CC1CC(c2ccccc2)=NO1` (stereo not shown) [VGX-1027, 3-phenyl-4,5-dihydro-5-isoxazoleacetic acid], the CYP450 inhibition (CYP450 2C9) is reported as “no significant inhibition”, the CYP450 inhibition (CYP450 3A4) is reported as “no significant inhibition” and the CYP450 inhibition (CYP450 1A2) is reported as “no significant inhibition”. For the same compound, the CYP450 inhibition (CYP450 2D6) was “no significant inhibition”, the CYP450 inhibition (CYP450 2C19) was “no significant inhibition” and the inhibition at 30 µM (CYP2C19) was ~35%. The “serum anti-dsDNA autoantibodies” value ([1]; 36-weeks old, p<0.0001) was “significant lower levels”, the anti-dsDNA antibodies ([1]; at 26 weeks of age) was “Only slightly increased levels” and the mice dead ([1]; by week 36, 5 mg/mouse i.p. daily for 20 weeks) was 33.3%. The “renal histopathology mean score” value ([1]; end-stage nephritis, p=0.01) was 1.9±0.8, the “relative levels of renal p-STAT3 (ELISA)” value ([1]; p=0.0234) was “significant reduction” and the levels of proteinuria ([1]; throughout the experimental period, p=0.0265) was “significantly lower”. The “Myeloperoxidase (MPO) activity in the lungs” value (CAR-induced pleurisy) was “effectively decreased”, the “number of granulocytes (PCN)” value (CAR-induced pleurisy) was “effectively decreased” and the “prevention of CAR-induced pleurisy compared with anti-TNF” value (CAR-induced pleurisy) was “as effective as anti-TNF treatment”. The volume of exudates (CAR-induced pleurisy) was “effectively decreased”, the “DNA binding of NF-kB” value (NF-kB) was “powerfully inhibits in a dose-dependent fashion” and the half-life [2] was > 1.5 h. The “inflammatory cytokines in the aqueous humor” value ([3]; LPS-induced increase) was “decreased”, the “protein in the aqueous humor” value ([3]; LPS-induced increase) was “decreased” and the clinical inflammation score ([3]; administered 30 minutes after LPS) was “significantly lower”. The clinical inflammation grade ([3]; administered 12 hours post LPS) was “not observed”, the “infiltration of cells into the iris ciliary body” value ([3]; rat, in vivo) was “decreased” and the IL-1β levels (Normal human PBMCs) was “repressed to levels comparable to the negative controls”. The TNF-α levels (Normal human PBMCs) was “repressed to levels comparable to the negative controls”.
